Consider 5 compounds from patent publication US20040142888A1, “Modulators of RabGGT and methods of use thereof” (priority 2002, published 2004).

The target in test [1] is Farnesyl Transferase (FT) (Homo sapiens, UniProt P49354+P49356). The experiment in a line: Biochemical assay for inhibition of farnesyl transferase (FT). The procedure:
Biochemical assays for inhibition of FT were performed as described by Mann et al. (1995, Drug Dev. Res. 34: 121) with the modifications described by Ding et al. (1999, J. Med. Chem., 42:5241)

The target in the next test is T1, rat RabGGT (Rattus norvegicus, UniProt Q08602+Q08603).
T1 construct: purchased Calbiochem 345855; host or cells: Sf9/baculovirus
T1 sequence (Q08602 1-567): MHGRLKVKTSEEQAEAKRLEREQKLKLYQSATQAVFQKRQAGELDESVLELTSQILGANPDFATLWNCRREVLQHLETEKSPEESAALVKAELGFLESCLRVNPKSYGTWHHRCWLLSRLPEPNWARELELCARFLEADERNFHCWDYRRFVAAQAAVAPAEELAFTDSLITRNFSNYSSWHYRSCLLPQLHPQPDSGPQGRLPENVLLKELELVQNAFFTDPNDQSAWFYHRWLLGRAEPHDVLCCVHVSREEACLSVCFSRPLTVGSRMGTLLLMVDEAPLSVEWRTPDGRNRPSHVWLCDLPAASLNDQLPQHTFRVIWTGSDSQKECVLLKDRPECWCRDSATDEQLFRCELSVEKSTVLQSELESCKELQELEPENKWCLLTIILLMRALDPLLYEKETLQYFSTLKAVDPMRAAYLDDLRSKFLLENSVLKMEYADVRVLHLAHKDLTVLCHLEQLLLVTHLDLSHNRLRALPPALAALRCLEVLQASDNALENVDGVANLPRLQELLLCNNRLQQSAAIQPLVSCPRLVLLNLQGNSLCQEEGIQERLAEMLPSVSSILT
T1 sequence (Q08603 1-331): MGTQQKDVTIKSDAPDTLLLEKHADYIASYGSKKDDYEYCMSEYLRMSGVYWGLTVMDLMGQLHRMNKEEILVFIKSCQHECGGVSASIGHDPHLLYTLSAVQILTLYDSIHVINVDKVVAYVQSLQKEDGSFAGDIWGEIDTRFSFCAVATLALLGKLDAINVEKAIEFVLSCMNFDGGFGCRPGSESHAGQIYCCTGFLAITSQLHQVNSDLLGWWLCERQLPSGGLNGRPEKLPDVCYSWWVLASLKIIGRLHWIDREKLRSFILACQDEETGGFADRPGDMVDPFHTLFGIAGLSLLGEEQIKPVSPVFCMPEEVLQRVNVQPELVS
Briefly: RabGGT filter binding assay: transfer of (3H)geranylgeranyl from 3H-GGPP to recombinant Rab3A. In kind it is biochemical. The conditions noted are these: for IC90/IC50: RabGGT inhibition. An excerpt: The effect of compounds 7A through 7T on RabGGT activity was quantified using a filter binding assay that measures the transfer of (3H) geranylgeranyl groups (GG) from all-trans-(3H)geranylgeranyl pyrophosphate (3H-GGPP) to recombinant Rab3A protein (Shen & Seabra, 1996, JBC, 271 :3692; Armstrong et al., 1996, Methods in Enzymology 257:30). Modifications to published protocols are noted explicitly below.
Recombinant rat RabGGT, expressed using the Sf9/baculovirus system, was purchased from Calbiochem (cat. no. 345855). Recombinant unprenylated human Rab3A was obtained from Panvera.(cat. no. P2173). Human REβ-1, expressed in Sf9 cells, was obtained from Calbiochem (cat. no. 554000). Tritium labeled geranylgeranyl pyrophosphate was purchased from Amersham Pharmacia Biotech (15 Ci/mmol). Unlabeled GGPP was purchased from Sigma (cat. no. G-6025).
The reaction buffer contained 50 mM HEPES pH7.4, 5 mM MgCl2, 1 mM DTT, 1 mM Nβ-40. Solutions of RabGGT, Rab3A, REP-1, and GGPP were prepared in this reaction buffer. Final protein concentrations in the reaction mixture were modified from the published protocols, with the standard reaction mixture containing 2 μM Rab3A, 0.2 μM REP-1, 5 μM unlabeled GGPP, 0.5 μM labeled GGPP, and 10-50 nM RabGGT in a total volume of 20 μl. The specific activity of (3H)GGPP used in the assay was 3000 dpm/pmol.
Compounds were prepared as 50 mM stocks in DMSO and diluted to give an appropriate concentration for the assay as a 20% DMSO stock. 2 μl of the diluted compound stock was added to a 20 μl reaction to give a final DMSO concentration of 2% in the assay.
The order of addition of reagents was altered from the published protocols. Reaction mixtures were prepared by sequentially adding Rab3A and REP-1 proteins to the reaction buffer, followed by compound and RabGGT enzyme to a volume of 18 μl. Reactions were initiated by the addition of 2 μl of a solution that contained unlabeled and labeled GGPP. After a 30 minute incubation at 37° C., 1 ml of stop solution (1 volume of concentrated HCl acid with 9 volumes of ethanol) was added and mixed. The solution was then incubated at room temperature for 1 hour to completely precipitate proteins.
The precipitate was collected by vacuum filtration using a vacuum filtration manifold (Millipore model 1225) onto 25 mm GF/A filters (Whatman) that were prewetted with ethanol. The tubes were rinsed twice with 1 ml ethanol which was also poured over the filters. Each filter was subsequently washed three times with 2 mls of ethanol per wash, dried under vacuum, and then put in scintillation vials. Four milliliters of scintillation fluid was added and the radioactivity was quantified on a scintillation counter. Several types of blank reactions were conducted including withholding the enzyme, the substrate, or the accessory protein REP-1, or replacing the compound solution with a 20% DMSO solution. For the substrate titration experiment, the equimolar amounts of Rab3A and REP-1 were mixed and preincubated for 30 min at room temperature before addition of the enzyme.
The data was analyzed by non-linear regression analysis methods using the program PRIZM (GraphPad Software, Inc.). Inhibition constants were obtained by analyzing the data using the one site competition equation provided by the software. FIG. 7 presents a typical data series obtained for compound 7B using these methods.

Setting [2] is: recombinant rat RabGGT, Rab3A, REP-1, 30 minute at 37° C.

Usually IC50 stands for the concentration that inhibits the measured activity by half. A word on the IC90: it is the point of the concentration-response curve where the effect stands at 90%.

As to `COc1ccc(S(=O)(=O)N2Cc3cc(C#N)ccc3N(Cc3cnc[nH]3)C[C@H]2Cc2ccccc2)cc1` [Compound 7A], the concentration for half-maximal inhibition (IC50) is 2.4 nM in test [1], 36 nM at rat RabGGT (Table 7) and 36 nM on rat RabGGT (setting [2]). The IC90 in test [1] was 30 nM; at rat RabGGT (setting [2]), 295 nM. Besides, the IC90/IC50 on rat RabGGT is 8.

Consider `N#Cc1ccc2c(c1)CN(S(=O)(=O)N1CCCCC1)[C@H](Cc1ccccc1)CN2Cc1cnc[nH]1` [Compound 7B], for which the concentration for half-maximal inhibition (IC50) was determined as 7.8 nM in test [1], 21 nM at rat RabGGT (Table 7) and 21 nM on rat RabGGT (setting [2]). Also, the results for the IC90 (in test [1]; at rat RabGGT (setting [2])) were 110 nM and 199 nM, respectively. In addition, the IC90/IC50 at rat RabGGT is listed as 9.

As to `CCCS(=O)(=O)N1Cc2cc(C#N)ccc2N(Cc2cnc[nH]2)C[C@H]1Cc1ccccc1` [Compound 7H], the values for the IC50 (in test [1]; at rat RabGGT (Table 7); at rat RabGGT (setting [2])) were 4.1 nM, 21 nM and 21 nM, respectively. In addition, the IC90 is 360 nM in test [1] and 115 nM at rat RabGGT (setting [2]). Moreover, the IC90/IC50 on rat RabGGT came to 5.

In the case of `COc1ccc(S(=O)(=O)N2Cc3cc(C#N)ccc3N(Cc3cncn3C)C[C@H]2Cc2ccccc2)cc1` [Compound 7I], the IC50 in test [1] came to 1.4 nM; at rat RabGGT (Table 7), 16 nM; at rat RabGGT (setting [2]) it was 16 nM. Besides, the figures for the concentration for an effect of 90% (IC90) (in test [1]; on rat RabGGT (setting [2])) were 11 nM and 93 nM, respectively. Moreover, the IC90/IC50 at rat RabGGT worked out at 6.

For the compound `Cn1cncc1CN1C[C@@H](Cc2ccccc2)N(S(=O)(=O)c2cccs2)Cc2cc(C#N)ccc21` [Compound 7J], the IC50 in test [1] turned out to be 0.8 nM; at rat RabGGT (Table 7), 12 nM; at rat RabGGT (setting [2]), 12 nM. The IC90 in test [1] worked out at 7 nM; at rat RabGGT (setting [2]), 58 nM. The IC90/IC50 on rat RabGGT came to 5.
